pIC50: −log10 of the molar value. Counter-ions that a name gives are not always drawn.
Assays:
[1] = target: T1, p38 alpha (Homo sapiens, UniProt Q16539); assay: P38 alpha enzyme inhibition assay (Alphascreen kinase activity assay); assay type: biochemical; settings: 100 pM p38 alpha, 2 hours preincubation at 25° C., 250 μM ATP, ATF-2 fusion protein; read-out: p38α inhibition
T1 construct: purchased Invitrogen PV3304
Procedure, shortened: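 100 pM p38 alpha preincubated 2 h at 25 °C with compound and 0.3 μg/ml ATF-2 fusion substrate (HEPES pH 7.5, MgCl2, 1% DMSO). Reaction started with 250 μM ATP, run 1 h at 25 °C, stopped with EDTA; phospho-ATF2 detected by AlphaScreen luminescence. IC50 from concentration-response curves.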

[2] = test system: Peripheral Blood Mononuclear Cells (PBMCs), TNFα release; assay: LPS-stimulated PBMC TNFα release assay; assay type: cell-based; settings: human PBMC, LPS (10 ng/ml), 18 h, compound 1 h before LPS; read-out: LPS-stimulated PBMC TNFα release inhibition
Procedure, shortened: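 Human PBMCs from healthy donors, serum-starved 3 h, then pre-incubated 1 h at 37 °C with compound in 1% FBS medium before LPS (10 ng/ml) for 18 h. Supernatant TNFα measured by MSD; IC50 from dose-response as % inhibition of control, at least three experiments.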

T1 sequence (Q16539 whole entry, the tested form may be a part): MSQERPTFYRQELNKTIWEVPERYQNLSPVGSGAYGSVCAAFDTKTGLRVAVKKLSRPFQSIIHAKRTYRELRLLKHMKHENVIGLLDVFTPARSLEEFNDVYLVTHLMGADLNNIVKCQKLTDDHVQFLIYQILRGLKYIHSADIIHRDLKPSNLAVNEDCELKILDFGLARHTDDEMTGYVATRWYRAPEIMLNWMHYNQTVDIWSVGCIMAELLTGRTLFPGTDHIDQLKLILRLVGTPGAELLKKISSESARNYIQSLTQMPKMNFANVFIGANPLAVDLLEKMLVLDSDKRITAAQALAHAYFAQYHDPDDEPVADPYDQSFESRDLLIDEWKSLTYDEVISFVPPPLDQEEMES

Row | SMILES | pIC50 [1] | pIC50 [2]
1 | CC(C)Cc1nnc2ccc(O[C@@H]3CC[C@H](NC(=O)Nc4cc(C(C)(C)C)nc(C(=O)NCCN(C)C)n4)c4ccccc43)cn12 [Example 91, 4-(tert-butyl)-N-(2-(dimethylamino)ethyl)-6-(3-((1S,4R)-4-((3-isobutyl-[1,2,4]triazolo[4,3-a]pyridin-6-yl)oxy)-1,2,3,4-tetrahydronaphthalen-1-yl)ureido)pyrimidine-2-carboxamide] | 8.00 to 9.00 | < 8.30
2 | COCCN(CCNC(=O)c1nc(NC(=O)N[C@H]2CC[C@@H](Oc3ccc4nnc(C(C)(C)C)n4c3)c3ccccc32)cc(C(C)(C)C)n1)CCOC [Example 92, N-(2-(bis(2-methoxyethyl)amino)-ethyl)-4-(tert-butyl)-6-(3-((1S,4R)-4-((3-(tert-butyl)-[1,2,4]triazolo[4,3-a]pyridin-6-yl)oxy)-1,2,3,4-tetrahydronaphthalen-1-yl)ureido)pyrimidine-2-carboxamide] | 8.00 to 9.00 | < 8.30
3 | CC(C)(C)c1cc(NC(=O)N[C@H]2CC[C@@H](Oc3ccc4nnc(C(C)(C)C)n4c3)c3ccccc32)nc(C(=O)NCCN2CC[C@@H](O)C2)n1 [Example 93, 4-(tert-butyl)-6-(3-((1S,4R)-4-((3-(tert-butyl)-[1,2,4]triazolo[4,3-a]pyridin-6-yl)oxy)-1,2,3,4-tetrahydronaphthalen-1-yl)ureido)-N-(2-((R)-3-hydroxypyrrolidin-1-yl)ethyl)pyrimidine-2-carboxamide] | > 9.00 | < 8.30
4 | CC(C)(C)c1cc(NC(=O)N[C@H]2CC[C@@H](Oc3ccc4nnc(C(C)(C)C)n4c3)c3ccccc32)nc(C(=O)NCCN2CC[C@H](O)C2)n1 [Example 94, 4-(tert-butyl)-6-(3-((1S,4R)-4-((3-(tert-butyl)-[1,2,4]triazolo[4,3-a]pyridin-6-yl)oxy)-1,2,3,4-tetrahydronaphthalen-1-yl)ureido)-N-(2-((S)-3-hydroxypyrrolidin-1-yl)ethyl)pyrimidine-2-carboxamide] | > 9.00 | < 8.30
5 | COC(C)(C)c1nnc2ccc(O[C@@H]3CC[C@H](NC(=O)Nc4cc(C(C)(C)C)nc(C(=O)NCCN5CCOCC5)n4)c4ccccc43)cn12 [Example 95, 4-(tert-butyl)-6-(3-((1S,4R)-4-((3-(2-methoxypropan-2-yl)-[1,2,4]triazolo[4,3-a]pyridin-6-yl)oxy)-1,2,3,4-tetrahydronaphthalen-1-yl)ureido)-N-(2-morpholinoethyl)-pyrimidine-2-carboxamide] | 8.00 to 9.00 | < 8.30
6 | COC(C)(C)c1nnc2ccc(O[C@@H]3CC[C@H](NC(=O)Nc4cc(C(C)(C)C)nc(C(=O)NCCN(C)C)n4)c4ccccc43)cn12 [Example 96, 4-(tert-butyl)-N-(2-(dunethylamino)ethyl)-6-(3-((1S,4R)-4-((3-(2-methoxypropan-2-yl)-[1,2,4]triazolo[4,3-a]pyridin-6-yl)oxy)-1,2,3,4-tetrahydronaphthalen-1-yl)ureido)pyrimidine-2-carboxamide] | 8.00 to 9.00 | 8.30 to 9.00
7 | COCC(C)(C)c1nnc2ccc(O[C@@H]3CC[C@H](NC(=O)Nc4cc(C(C)(C)C)nc(C(=O)NCCN5CCOCC5)n4)c4ccccc43)cn12 [Example 97, 4-(tert-butyl)-6-(3-((1S,4R)-4-((3-(1-methoxy-2-methylpropan-2-yl)-[1,2,4]triazolo[4,3-a]pyridin-6-yl)oxy)-1,2,3,4-tetrahydronaphthalen-1-yl)ureido)-N-(2-morpholinoethyl)-pyrimidine-2-carboxamide] | > 9.00 | < 8.30
8 | CC(C)(C)Cc1nnc2ccc(O[C@@H]3CC[C@H](NC(=O)Nc4cc(C(C)(C)C)nc(C(=O)NCCN5CCOCC5)n4)c4ccccc43)cn12 [Example 99, 4-(tert-butyl)-N-(2-morpholinoethyl)-6-(3-((1S,4R)-4-((3-neopentyl-[1,2,4]triazolo[4,3-a]pyridin-6-yl)oxy)-1,2,3,4-tetrahydronaphthalen-1-yl)ureido)pyrimidine-2-carboxamide] | 8.00 to 9.00 | < 8.30
9 | CC[C@H](C)c1nnc2ccc(O[C@@H]3CC[C@H](NC(=O)Nc4cc(C(C)(C)C)nc(C(=O)NCCN(C)C)n4)c4ccccc43)cn12 [Example 100, 4-(tert-butyl)-6-(3-((1S,4R)-4-((3-((S)-sec-butyl)-[1,2,4]triazolo[4,3-a]pyridin-6-yl)oxy)-1,2,3,4-tetrahydronaphthalen-1-yl)ureido)-N-(2-(dimethylamino)ethyl)-pyrimidine-2-carboxamide] | > 9.00 | 8.30 to 9.00

The next lines start with results.

Row | pIC50 [1] | SMILES | pIC50 [2]
10 | > 9.00 | CC[C@H](C)c1nnc2ccc(O[C@@H]3CC[C@H](NC(=O)Nc4cc(C(C)(C)C)nc(C(=O)NCCN5CCOCC5)n4)c4ccccc43)cn12 [Example 102, 4-(tert-butyl)-6-(3-((1S,4R)-4-((3-((S)-sec-butyl)-[1,2,4]triazolo[4,3-a]pyridin-6-yl)oxy)-1,2,3,4-tetrahydronaphthalen-1-yl)ureido)-N-(2-morpholinoethyl)-pyrimidine-2-carboxamide] | < 8.30
11 | 8.00 to 9.00 | CC(C)(C)c1cc(NC(=O)N[C@H]2CC[C@@H](Oc3ccc4nnc(C(C)(C)C)n4c3)c3ccccc32)nc(CNC(=O)CCN2CCOCC2)n1 [Example 103, N-((4-(tert-butyl)-6-(3-((1S,4R)-4-((3-(tert-butyl)-[1,2,4]-triazolo[4,3-a]pyridin-6-yl)oxy)-1,2,3,4-tetrahydronaphthalen-1-yl)ureido)pyrimidin-2-yl)methyl)-3-morpholinopropanamide] | < 8.30
12 | 8.00 to 9.00 | COC1CN(CCNC(=O)c2nc(NC(=O)N[C@H]3CC[C@@H](Oc4ccc5nnc(C(C)(C)C)n5c4)c4ccccc43)cc(C(C)(C)C)n2)C1 [Example 104, 4-(tert-butyl)-6-(3-((1S,4R)-4-((3-(tert-butyl)-[1,2,4]triazolo[4,3-a]pyridin-6-yl)oxy)-1,2,3,4-tetrahydronaphthalen-1-yl)ureido)-N-(2-(3-methoxyazetidin-1-yl)ethyl)pyrimidine-2-carboxamide] | > 9.00
13 | > 9.00 | CC[C@H](C)c1nnc2ccc(O[C@@H]3CC[C@H](NC(=O)Nc4cc(C(C)(C)C)nc(C(=O)NCCN(C)CCOC)n4)c4ccccc43)cn12 [Example 105, 4-(tert-butyl)-6-(3-((1S,4R)-4-((3-((S)-sec-butyl)-[1,2,4]triazolo[4,3-a]pyridin-6-yl)oxy)-1,2,3,4-tetrahydronaphthalen-1-yl)ureido)-N-(2-((2-methoxyethyl)(methyl)-amino)ethyl)pyrimidine-2-carboxamide] | 8.30 to 9.00
14 | > 9.00 | CN(CCNC(=O)c1nc(NC(=O)N[C@H]2CC[C@@H](Oc3ccc4nnc(C(C)(C)C)n4c3)c3ccccc32)cc(C(C)(C)C)n1)C1COC1 [Example 107, 4-(tert-butyl)-6-(3-((1S,4R)-4-((3-(tert-butyl)-[1,2,4]triazolo[4,3-a]pyridin-6-yl)oxy)-1,2,3,4-tetrahydronaphthalen-1-yl)ureido)-N-(2-(methyl(oxetan-3-yl)amino)ethyl)-pyrimidine-2-carboxamide] | < 8.30
15 | > 9.00 | CC(C)(C)c1cc(NC(=O)N[C@H]2CC[C@@H](Oc3ccc4nnc(C(C)(C)C)n4c3)c3ccccc32)nc(C(=O)NCCN2CCC(O)CC2)n1 [Example 108, 4-(tert-butyl)-6-(3-((1S,4R)-4-((3-(tert-butyl)-[1,2,4]triazolo[4,3-a]pyridin-6-yl)oxy)-1,2,3,4-tetrahydronaphthalen-1-yl)ureido)-N-(2-(4-hydroxypiperidin-1-yl)ethyl)pyrimidine-2-carboxamide] | < 8.30
16 | > 9.00 | CC(C)(C)c1cc(NC(=O)N[C@H]2CC[C@@H](Oc3ccc4nnc(C5(C)CCC5)n4c3)c3ccccc32)nc(C(=O)NCCN2CCOCC2)n1 [Example 109, 4-(tert-butyl)-6-(3-((1S,4R)-4-((3-(1-methylcyclobutyl)-[1,2,4]triazolo[4,3-a]pyridin-6-yl)oxy)-1,2,3,4-tetrahydronaphthalen-1-yl)ureido)-N-(2-morpholinoethyl)-pyrimidine-2-carboxamide] | < 8.30
17 | 8.00 to 9.00 | CN1CCC[C@H]1C(=O)NCc1nc(NC(=O)N[C@H]2CC[C@@H](Oc3ccc4nnc(C(C)(C)C)n4c3)c3ccccc32)cc(C(C)(C)C)n1 [Example 110, (S)-N-((4-(tert-butyl)-6-(3-((1S,4R)-4-((3-(tert-butyl)-[1,2,4]triazolo[4,3-a]pyridin-6-yl)oxy)-1,2,3,4-tetrahydronaphthalen-1-yl)ureido)pyrimidin-2-yl)methyl)-1-methylpyrrolidine-2-carboxamide] | 8.30 to 9.00
18 | > 9.00 | CC(C)(C)c1cc(NC(=O)N[C@H]2CC[C@@H](Oc3ccc4nnc(C(C)(C)C)n4c3)c3ccccc32)nc(C(=O)NCCCN2CCCOCC2)n1 [Example 111, N-(3-(1,4-Oxazepan-4-yl)propyl)-4-(tert-butyl)-6-(3-((1S,4R)-4-((3-(tert-butyl)-[1,2,4]triazolo[4,3-a]pyridin-6-yl)oxy)-1,2,3,4-tetrahydronaphthalen-1-yl)ureido)pyrimidine-2-carboxamide partial formate salt] | < 8.30
19 | 8.00 to 9.00 | CN(C)CC(C)(C)NC(=O)c1nc(NC(=O)N[C@H]2CC[C@@H](Oc3ccc4nnc(C(C)(C)C)n4c3)c3ccccc32)cc(C(C)(C)C)n1 [Example 112, 4-(tert-butyl)-6-(3-((1S,4R)-4-((3-(tert-butyl)-[1,2,4]triazolo[4,3-a]pyridin-6-yl)oxy)-1,2,3,4-tetrahydronaphthalen-1-yl)ureido)-N-(1-(dimethylamino)-2-methylpropan-2-yl)pyrimidine-2-carboxamide] | 8.30 to 9.00

Reference: patent US10364245B2 (CHIESI FARMACEUTICI S.p.A., priority 2017, dated 2019)
